Measurements taken from publication PMC8197425, “ATP regulates RNA‐driven cold inducible RNA binding protein phase separation” (Protein Science : A Publication of the Protein Society, 2021).

Columns and labels:
CIRBP [1] = target: T1, CIRBP (Homo sapiens, UniProt Q14011); test: 1H-15N HSQC NMR chemical shift perturbation; assay type: binding; details: 17 μM 15N-CIRBP; 10 mM ligand; 50 mM sodium phosphate, 150 mM NaCl, pH 6.5, 298 K; RRM and RG/RGG region
T1 construct: full length (1-172), wild type; His6-protein A tag removed by TEV protease; E. coli BL21-DE3 Star; 15N-labelled
T1 sequence (Q14011 1-172): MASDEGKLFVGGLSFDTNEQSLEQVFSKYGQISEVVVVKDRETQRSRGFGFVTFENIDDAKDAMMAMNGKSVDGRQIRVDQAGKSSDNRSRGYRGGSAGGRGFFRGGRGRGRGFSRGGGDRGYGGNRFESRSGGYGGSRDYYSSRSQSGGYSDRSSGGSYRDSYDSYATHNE

CIRBP [2] = target: T1, CIRBP; test: 1H-15N HSQC NMR titration; assay type: binding
From the text: 1H-15N HSQC NMR titration on CIRBP | ATP binding to CIRBP is in the fast exchange regime with an associated KD

| Kd (CIRBP [2]) [mM] | Compound | 1H-15N HSQC NMR chemical shift perturbation (CIRBP [1]) |
| --- | --- | --- |
|  | Nc1ncnc2c1ncn2[C@@H]1O[C@H](COP(=O)(O)OP(=O)(O)O)[C@@H](O)[C@H]1O [ADP] | ADP and NAD^+ showed binding to CIRBP (Figure 2a,c) |
|  | NC(=O)C1=CN([C@@H]2O[C@H](COP(=O)(O)OP(=O)(O)OC[C@H]3O[C@@H](n4cnc5c(N)ncnc54)[C@H](OP(=O)(O)O)[C@@H]3O)[C@@H](O)[C@H]2O)C=CC1 [NADPH] | dinucleotides (NADH, NADP^+ and NADPH) showed significant binding to CIRBP |
|  | Nc1ncnc2c1ncn2[C@@H]1O[C@H](COP(=O)(O)O)[C@@H](O)[C@H]1O [AMP] | the other tested nucleotides (ATP, AMP) |
|  | NC(=O)c1ccc[n+]([C@@H]2O[C@H](COP(=O)(O)OP(=O)(O)OC[C@H]3O[C@@H](n4cnc5c(N)ncnc54)[C@H](O)[C@@H]3O)[C@@H](O)[C@H]2O)c1 [NAD+] | ADP and NAD^+ showed binding to CIRBP (Figure 2a,c) |
| 2.9 ± 1.4 | Nc1ncnc2c1ncn2[C@@H]1O[C@H](COP(=O)(O)OP(=O)(O)OP(=O)(O)O)[C@@H](O)[C@H]1O [ATP] |  |
|  | NC(=O)C1=CN([C@@H]2O[C@H](COP(=O)(O)OP(=O)(O)OC[C@H]3O[C@@H](n4cnc5c(N)ncnc54)[C@H](O)[C@@H]3O)[C@@H](O)[C@H]2O)C=CC1 [NADH] | dinucleotides (NADH, NADP^+ and NADPH) showed significant binding to CIRBP |
